# In patent US8273768B2, “Iso CA-4 and analogues thereof as potent cytotoxic agents inhibiting tubuline polymerization” (Centre National de la Recherche Scientifique (CNRS), priority 2007, dated 2012):
# What was measured:
# [1] = system: human colon tumors LS174T xenografted in Nude mice; assay: Antivascular activity in vivo (MRI, Dotarem entry into tumors); conditions: LS174T xenograft
# Method: The antivascular effect of the molecule (I-1) was tested on mice bearing human tumors by comparison with the positive control DMXAA, according to the procedure described by Beauregard et al. (NMR Biomed., 2002, 15:99-105).
# Thus, CD-1 Nude female mice were xenografted by subcutaneous injection of human colon tumoral cells (LS174T). The mice bearing tumors were then treated with 0.9% NaCl (carrier, 10 mL/kg), DMXAA (27.5 mg/kg) via an intraperitoneal route (IP) or the molecule (I-1) (45 mg/kg) via an intravenous route (IV). Three hours after administration, the mice were treated with the Dotarem® contrast agent intravenously (IV). The penetration of the contrast agent into the tumors was followed in real time by magnetic resonance imaging (MRI) and is expressed by an enhancement of the intensity of the signal in the tumors. Densitometric analysis of the acquired images allows determination of the maximum enhancement (Rmax) as well as the slope P0 corresponding to the entry rate of Dotarem® into the tumors.
# B16F10 = assay: Study of cytotoxicity (CellTiter-Blue, 72 hours); type: cell-based, human; conditions: Mus musculus, B16-F10; 72 hours of incubation; read-out: IC50 for different cell lines: B16F10
# Method: The biological activity of the compounds of the invention was studied in vitro on 7 human cancer cell lines with different tissue origins (HCT116: colorectal carcinoma; K562: chronic myeloid leukemia; B16-F10: melanoma; U87: glioblastoma; A549: lung cancer and MDA-MB 231 and MDA-MB 435: breast cancer). The cells selected for the study were incubated at 37° C. in the presence of one of the compounds added into the culture medium at different concentrations. The whole of the conducted experiments allowed determination of the toxicity level of the tested compound, its effect on the course of the cell cycle as well as its capacity of inducing cell death by apoptosis.
# The cancer cell lines originate from the American Type Culture Collection (Rockville, Md., USA) and were grown according to the recommendations of the supplier.
# The cells A549, U87, MDA-MB231, MDA-MB435 and B16F10 were grown in a culture medium “Dulbecco minimal essential medium” (DMEM) containing 4.5 g/L of glucose and supplemented with 10% fetal calf serum and 1% glutamine. […] Cell viability was evaluated by using the reagent “CellTiter-Blue™” (Promega, Wis., USA) while observing the instructions of the manufacturer. […] After 2 hours of incubation, the emitted fluorescence was measured at 590 nm after excitation at 560 nm by means of a fluorescence reader of the Victor type (Perkin-Elmer, USA). […]
# [2] = 3 hours after administration, DMXAA 27.5 mg/kg IP, (I-1) 45 mg/kg IV
compound,measurement,setting,value
C=C(c1ccc(OC)c(O)c1)c1cc(OC)c(OC)c(OC)c1 [(I-1)],Antivascular effect in vivo,[1]; 45 mg/kg IV,has an antivascular effect
same,Average of P0,[1]; [2],1.53±0.82 arbitrary unit
same,Average of Rmax,[1]; [2],67.56±33.10 % of the NaCl control
same,IC50,B16F10,2 nM
